Experimental data: paper PMC9386376, “Discovery of spirooxindole-derived small-molecule compounds as novel HDAC/MDM2 dual inhibitors and investigation of their anticancer activity” (Frontiers in Oncology, 2022)
Entries after “also recorded” stand apart in the source; their conditions may differ.

Experiments:
HDAC9 = HDAC9 (Homo sapiens, UniProt Q9UKV0); experiment: HDAC isoform selectivity, HDAC9; assay type: biochemical; conditions: HDAC subtype panel
HDAC7 = target: T1, HDAC7 (Homo sapiens, UniProt Q8WUI4); experiment: HDAC isoform selectivity, HDAC7; assay type: biochemical; conditions: HDAC subtype panel
T1 sequence (Q8WUI4 1-952): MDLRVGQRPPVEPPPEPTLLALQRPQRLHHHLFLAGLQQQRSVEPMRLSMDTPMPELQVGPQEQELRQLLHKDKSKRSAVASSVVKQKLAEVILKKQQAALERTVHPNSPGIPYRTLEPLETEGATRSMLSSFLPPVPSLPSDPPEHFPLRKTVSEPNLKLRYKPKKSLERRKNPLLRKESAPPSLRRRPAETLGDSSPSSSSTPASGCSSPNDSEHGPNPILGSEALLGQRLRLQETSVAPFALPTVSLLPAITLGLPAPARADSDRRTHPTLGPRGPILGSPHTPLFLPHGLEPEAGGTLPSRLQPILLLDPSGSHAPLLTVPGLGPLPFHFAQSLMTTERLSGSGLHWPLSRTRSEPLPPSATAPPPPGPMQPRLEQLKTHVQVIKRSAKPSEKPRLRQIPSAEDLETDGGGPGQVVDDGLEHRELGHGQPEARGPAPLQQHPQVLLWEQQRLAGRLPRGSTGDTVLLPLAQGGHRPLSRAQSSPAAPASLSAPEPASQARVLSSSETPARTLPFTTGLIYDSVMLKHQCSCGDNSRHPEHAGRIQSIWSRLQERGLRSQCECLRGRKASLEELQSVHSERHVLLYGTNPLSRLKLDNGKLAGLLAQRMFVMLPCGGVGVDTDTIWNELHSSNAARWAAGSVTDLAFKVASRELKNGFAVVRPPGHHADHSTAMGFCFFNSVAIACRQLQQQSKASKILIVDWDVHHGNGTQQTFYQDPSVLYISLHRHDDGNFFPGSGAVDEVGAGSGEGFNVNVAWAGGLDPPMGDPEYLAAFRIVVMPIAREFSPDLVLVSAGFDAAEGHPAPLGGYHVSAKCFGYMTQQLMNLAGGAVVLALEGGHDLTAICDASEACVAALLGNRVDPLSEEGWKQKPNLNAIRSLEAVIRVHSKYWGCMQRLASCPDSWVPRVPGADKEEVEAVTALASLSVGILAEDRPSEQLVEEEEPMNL

HDAC2 = HDAC2 (Homo sapiens, UniProt Q92769); experiment: HDAC isoform selectivity, HDAC2; assay type: biochemical; conditions: HDAC subtype panel
Sequence of HDAC2 (Q92769 whole entry, canonical isoform): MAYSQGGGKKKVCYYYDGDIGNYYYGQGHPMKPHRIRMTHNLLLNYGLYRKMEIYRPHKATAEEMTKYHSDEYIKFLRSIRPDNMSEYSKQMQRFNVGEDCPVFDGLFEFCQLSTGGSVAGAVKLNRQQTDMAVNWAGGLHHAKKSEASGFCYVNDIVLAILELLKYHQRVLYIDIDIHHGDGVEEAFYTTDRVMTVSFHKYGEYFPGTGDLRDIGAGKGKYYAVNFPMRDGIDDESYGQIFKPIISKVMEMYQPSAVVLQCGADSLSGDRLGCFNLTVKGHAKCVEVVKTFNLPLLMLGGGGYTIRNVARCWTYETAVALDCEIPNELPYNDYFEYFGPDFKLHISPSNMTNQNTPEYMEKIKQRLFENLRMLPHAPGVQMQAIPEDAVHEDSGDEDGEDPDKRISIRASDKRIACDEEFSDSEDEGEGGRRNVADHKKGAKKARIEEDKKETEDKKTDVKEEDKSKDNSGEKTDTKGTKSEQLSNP

HDAC5 = HDAC5 (Homo sapiens, UniProt Q9UQL6); experiment: HDAC isoform selectivity, HDAC5; assay type: biochemical; conditions: HDAC subtype panel
Sequence of HDAC5 (Q9UQL6 whole entry, canonical isoform): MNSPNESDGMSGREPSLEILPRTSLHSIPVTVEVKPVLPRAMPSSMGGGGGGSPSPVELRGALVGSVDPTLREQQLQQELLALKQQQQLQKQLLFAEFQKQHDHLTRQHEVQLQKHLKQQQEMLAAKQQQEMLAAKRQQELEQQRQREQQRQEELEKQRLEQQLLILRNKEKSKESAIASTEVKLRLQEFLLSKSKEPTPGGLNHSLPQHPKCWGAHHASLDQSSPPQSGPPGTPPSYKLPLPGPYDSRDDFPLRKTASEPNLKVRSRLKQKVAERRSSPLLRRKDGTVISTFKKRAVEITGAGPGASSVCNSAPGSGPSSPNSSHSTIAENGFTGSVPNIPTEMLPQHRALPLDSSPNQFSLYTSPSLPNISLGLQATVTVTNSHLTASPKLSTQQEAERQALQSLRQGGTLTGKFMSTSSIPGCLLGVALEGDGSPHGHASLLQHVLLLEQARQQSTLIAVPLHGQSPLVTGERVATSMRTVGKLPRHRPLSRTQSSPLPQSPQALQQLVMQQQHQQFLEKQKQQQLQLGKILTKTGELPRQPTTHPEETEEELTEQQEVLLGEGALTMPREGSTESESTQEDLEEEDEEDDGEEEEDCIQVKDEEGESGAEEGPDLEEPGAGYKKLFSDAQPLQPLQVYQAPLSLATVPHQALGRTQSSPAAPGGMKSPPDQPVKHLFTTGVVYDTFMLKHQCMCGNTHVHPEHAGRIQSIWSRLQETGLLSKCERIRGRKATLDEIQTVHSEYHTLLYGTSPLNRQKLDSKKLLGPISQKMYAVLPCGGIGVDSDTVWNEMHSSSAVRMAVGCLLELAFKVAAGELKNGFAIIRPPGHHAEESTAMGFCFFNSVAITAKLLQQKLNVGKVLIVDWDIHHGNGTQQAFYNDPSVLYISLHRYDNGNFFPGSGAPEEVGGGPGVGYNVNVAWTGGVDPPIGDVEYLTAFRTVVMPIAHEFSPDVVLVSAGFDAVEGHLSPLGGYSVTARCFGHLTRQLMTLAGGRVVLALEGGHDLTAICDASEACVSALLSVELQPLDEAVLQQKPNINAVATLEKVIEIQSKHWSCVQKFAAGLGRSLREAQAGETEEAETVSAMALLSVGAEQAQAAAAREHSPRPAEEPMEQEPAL

Ac-H4 in MCF-7 cells = experiment: Western blot, acetylation of H4; assay type: cell-based, human; conditions: MCF-7, 24 h
Description: The cells were collected and washed with cold PBS twice, then added the protease and phosphatase inhibitors contained lysis buffer. Total cell lysates were prepared in lysis RIPA buffer (Invitrogen, CA, USA) on ice for 30 min, followed by centrifugation at 12000 rpm for 10 min at 4°C. After collecting supernatant, protein concentration was determined by a BCA protein assay. The total proteins were loaded into the 10%-15% SDS-PAGE gel and separated by sodium dodecyl sulfate polyacrylamide gel electrophoresis (PAGE). After electrophoresis, the protein was transferred to the PVDF membranes and rinsed three times in PBST buffer for 10 min each time, then sealed with 5% BSA Buffer for 1h. The membranes were incubated at 4°C for 24 h with primary antibodies and washed with TBST three times. Then incubated at room temperature for 2 h with secondary antibodies (1:10,000). The incubated PVDF membranes were taken out and rinsed with TBST three times. The protein bands were visualized through enhanced chemiluminescence (ECL) WB substrate (Millipore, MA, USA) and analyzed by ChemiScope. The antibodies including p53, MDM2, H4, and GAPDH were purchased from Abcam (Cambridge, MA, USA).

Sequence of HDAC9 (Q9UKV0 whole entry, canonical isoform): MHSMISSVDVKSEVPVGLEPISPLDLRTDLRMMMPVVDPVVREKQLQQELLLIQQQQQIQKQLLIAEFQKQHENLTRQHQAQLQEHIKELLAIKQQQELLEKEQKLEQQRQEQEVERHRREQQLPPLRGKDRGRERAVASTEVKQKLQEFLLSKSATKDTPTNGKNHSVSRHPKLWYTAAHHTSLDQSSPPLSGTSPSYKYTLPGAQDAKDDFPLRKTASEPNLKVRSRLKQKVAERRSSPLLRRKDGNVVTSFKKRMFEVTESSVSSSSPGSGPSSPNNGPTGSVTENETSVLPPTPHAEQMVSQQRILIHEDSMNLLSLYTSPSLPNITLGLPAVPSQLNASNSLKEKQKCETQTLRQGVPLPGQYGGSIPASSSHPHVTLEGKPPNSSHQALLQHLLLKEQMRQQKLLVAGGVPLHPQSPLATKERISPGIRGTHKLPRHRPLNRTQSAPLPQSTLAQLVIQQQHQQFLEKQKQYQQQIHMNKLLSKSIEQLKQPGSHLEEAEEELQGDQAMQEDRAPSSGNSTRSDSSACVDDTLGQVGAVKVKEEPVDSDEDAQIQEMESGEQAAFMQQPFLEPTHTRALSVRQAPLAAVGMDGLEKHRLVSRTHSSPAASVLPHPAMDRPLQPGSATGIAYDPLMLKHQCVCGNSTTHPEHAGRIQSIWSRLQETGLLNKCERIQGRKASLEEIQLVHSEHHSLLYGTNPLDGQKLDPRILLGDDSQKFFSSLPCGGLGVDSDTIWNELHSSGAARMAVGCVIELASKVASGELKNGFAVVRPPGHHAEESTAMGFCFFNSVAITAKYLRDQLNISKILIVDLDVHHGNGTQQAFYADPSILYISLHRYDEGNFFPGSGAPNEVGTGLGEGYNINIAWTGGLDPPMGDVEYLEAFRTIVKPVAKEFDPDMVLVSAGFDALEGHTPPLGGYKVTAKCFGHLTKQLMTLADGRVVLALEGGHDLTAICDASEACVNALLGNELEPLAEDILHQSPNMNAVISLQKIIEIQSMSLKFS

Structure (SMILES): O=C(CCCCCCC(=O)N1CCC(C(=O)Nc2ccc([C@@H]3[C@H]4CSCN4[C@]4(C(=O)Nc5cc(Cl)ccc54)[C@H]3C(=O)c3ccccc3)cc2)CC1)NO [compound 11b, N-(4-((3R,6'S,7'R,7a'S)-6'-benzoyl-6-chloro-2-oxo-1',6',7',7a'-tetrahydro-3'H-spiro[indoline-3,5'-pyrrolo[1,2-c]thiazol]-7'-yl)phenyl)-1-(8-(hydroxyamino)-8-oxooctanoyl)piperidine-4-carboxamide]
- IC50 (HDAC9): > 10 µM
- IC50 (HDAC7): > 10 µM
- IC50 (HDAC2): 0.064 ± 0.004 µM
- IC50 (HDAC5): > 10 µM
- acetylation level of H4 (Ac-H4, western blot) (Ac-H4 in MCF-7 cells): up-regulating the expression of p53 and Ac-H4; also recorded: increased the expression of p53 and Ac-H4; also recorded: increased acetylation level of H4
